Source: ChEMBL document CHEMBL5126523, “Recent advances in DDR (DNA damage response) inhibitors for cancer therapy” (Eur J Med Chem, 2022)
pIC50, pKi: −log10 of the molar value.

Tests used:
ATR/ATRIP [1] = molecular target: T1, ATR/ATRIP (Homo sapiens, UniProt Q13535); experiment: Inhibition of human FLAG-tagged ATR/c-Myc-tagged ATRIP expressed in mammalian expression system using p53 as substrate incubated for 2 hrs by fluorescence based assay
LoVo = experiment: Inhibition of cell growth in human LoVo cells assessed as measuring ATP content incubated for 3 days by Cell Titer Glo assay; format: functional, cell-based; conditions: 72 h
[2] = Oral bioavailability in BALB/c mouse at 2 mg/kg by LC-MS/MS analysis; format: ADME, organism-based; conditions: in vivo
ATR/ATRIP [3] = molecular target: T1, ATR/ATRIP; experiment: Inhibition of full-length human recombinant FLAG-tagged ATR/c-Myc-tagged ATRIP using p53 as substrate incubated for 30 mins in presence of ATP by fluorescence based assay; format: protein-complex assay
DU-145 = experiment: Inhibition of cell proliferation in human DU-145 cells incubated for 4 days by MTT assay; format: functional, cell-based; conditions: DU-145, 96 h
NCI-H460 = experiment: Inhibition of cell proliferation in human NCI-H460 cells incubated for 4 days by MTT assay; format: functional, cell-based; conditions: NCI-H460, 96 h
ATR/ATRIP [4] = molecular target: T1, ATR/ATRIP; experiment: Inhibition of full-length recombinant human ATR/ATRIP using p53 as substrate incubated for 30 mins in presence of ATP by HTRF assay; format: protein-complex assay
HCT-116 [5] = experiment: Inhibition of cell proliferation in human HCT-116 incubated for 48 hrs by Cell Titer Glo assay; format: functional, cell-based; conditions: HCT-116, 48 h
NCI-H23 = experiment: Inhibition of cell proliferation in human NCI-H23 incubated for 48 hrs by Cell Titer Glo assay; format: functional, cell-based; conditions: NCI-H23, 48 h
[6] = molecular target: T2, Poly [ADP-ribose] polymerase 1 (Homo sapiens, UniProt P09874); experiment: Inhibition of N-terminal GST-tagged recombinant human PARP1 (2 to 1014 residues) expressed in Sf9 insect cells incubated for 1 hr by colorimetric assay
NCI-H1299 = experiment: Inhibition of cell proliferation in human NCI-H1299 cells incubated for 3 days by MTT assay; format: functional, cell-based; conditions: NCI-H1299, 72 h
[7] = Cmax in BALB/c mouse at 2 mg/kg, po by LC-MS/MS analysis; format: ADME, organism-based; design: dose 2 mg/kg, route po; conditions: in vivo
[8] = molecular target: T3, DNA-dependent protein kinase catalytic subunit (Homo sapiens, UniProt P78527); experiment: Inhibition of DNA-PK (unknown origin) incubated for 3 hrs by ADP-Glo kinase assay
[9] = molecular target: T2, Poly [ADP-ribose] polymerase 1; experiment: Inhibition of PARP1 (unknown origin) by ELISA
[10] = molecular target: T2, Poly [ADP-ribose] polymerase 1; experiment: Inhibition of PARP1 (unknown origin) incubated for 1 hr by chemiluminescence assay
[11] = molecular target: T4, Phosphatidylinositol 4,5-bisphosphate 3-kinase catalytic subunit alpha isoform (Homo sapiens, UniProt P42336); experiment: Inhibition of PI3K-alpha (unknown origin) incubated for 40 mins in presence of ATP by ELISA
HCT-116 [12] = experiment: Inhibition of cell proliferation in human HCT-116 cells incubated for 72 hrs by SRB assay; format: functional, cell-based; conditions: HCT-116, 72 h
HCC1937 = experiment: Inhibition of cell proliferation in human HCC1937 cells incubated for 72 hrs by SRB assay; format: functional, cell-based; conditions: HCC1937, 72 h
MDA-MB-231 = experiment: Inhibition of cell proliferation in human MDA-MB-231 cells incubated for 72 hrs by SRB assay; format: functional, cell-based; conditions: MDA-MB-231, 72 h
[13] = molecular target: T3, DNA-dependent protein kinase catalytic subunit; experiment: Inhibition of DNA-PK (unknown origin) assessed as inhibition constant using Glu-Pro-Pro-Leu-Ser-Gln-Glu-Ala-Phe-Ala-Asp-Leu-Trp-Lys-Lys-Lys peptide as substrate incubated for 45 mins in presence of [33P]-ATP by scintillation counting method
[14] = molecular target: Serine/threonine-protein kinase ATR (Homo sapiens, UniProt Q13535); experiment: Inhibition of ATR (unknown origin)
[15] = molecular target: T5, Serine-protein kinase ATM (Homo sapiens, UniProt Q13315); experiment: Inhibition of ATM (unknown origin)
Homo sapiens [16] = species on record: Homo sapiens; experiment: Selectivity index, ratio of IC50 for ATM (unknown origin) to IC50 for ATR (unknown origin)
Homo sapiens [17] = species on record: Homo sapiens; experiment: Selectivity index, ratio of IC50 for ATM (unknown origin) to IC50 for PI3K-alpha (unknown origin)
Homo sapiens [18] = species on record: Homo sapiens; experiment: Selectivity index, ratio of IC50 for ATM (unknown origin) to IC50 for mTOR (unknown origin)
[19] = molecular target: T4, Phosphatidylinositol 4,5-bisphosphate 3-kinase catalytic subunit alpha isoform; experiment: Inhibition of PI3K-alpha (unknown origin)
[20] = molecular target: Serine/threonine-protein kinase mTOR (Homo sapiens, UniProt P42345); experiment: Inhibition of mTOR (unknown origin)
Wee1-like protein kinase = Wee1-like protein kinase (Homo sapiens, UniProt P30291); experiment: Displacement of tracer 178 from WEE1 (unknown origin) incubated for 1 hr by Lantha Screen assay
[21] = molecular target: T3, DNA-dependent protein kinase catalytic subunit; experiment: Inhibition of full-length human DNA-PK expressed in baculovirus expression system using p53 as substrate incubated for 1 hr in presence of ATP by ELISA
[22] = molecular target: T5, Serine-protein kinase ATM; experiment: Inhibition of ATM in human MCF7 cells […] incubated for 1 hr by Cell Western assay; format: cell-based

T2 sequence (P09874 whole entry, the tested form may be a part): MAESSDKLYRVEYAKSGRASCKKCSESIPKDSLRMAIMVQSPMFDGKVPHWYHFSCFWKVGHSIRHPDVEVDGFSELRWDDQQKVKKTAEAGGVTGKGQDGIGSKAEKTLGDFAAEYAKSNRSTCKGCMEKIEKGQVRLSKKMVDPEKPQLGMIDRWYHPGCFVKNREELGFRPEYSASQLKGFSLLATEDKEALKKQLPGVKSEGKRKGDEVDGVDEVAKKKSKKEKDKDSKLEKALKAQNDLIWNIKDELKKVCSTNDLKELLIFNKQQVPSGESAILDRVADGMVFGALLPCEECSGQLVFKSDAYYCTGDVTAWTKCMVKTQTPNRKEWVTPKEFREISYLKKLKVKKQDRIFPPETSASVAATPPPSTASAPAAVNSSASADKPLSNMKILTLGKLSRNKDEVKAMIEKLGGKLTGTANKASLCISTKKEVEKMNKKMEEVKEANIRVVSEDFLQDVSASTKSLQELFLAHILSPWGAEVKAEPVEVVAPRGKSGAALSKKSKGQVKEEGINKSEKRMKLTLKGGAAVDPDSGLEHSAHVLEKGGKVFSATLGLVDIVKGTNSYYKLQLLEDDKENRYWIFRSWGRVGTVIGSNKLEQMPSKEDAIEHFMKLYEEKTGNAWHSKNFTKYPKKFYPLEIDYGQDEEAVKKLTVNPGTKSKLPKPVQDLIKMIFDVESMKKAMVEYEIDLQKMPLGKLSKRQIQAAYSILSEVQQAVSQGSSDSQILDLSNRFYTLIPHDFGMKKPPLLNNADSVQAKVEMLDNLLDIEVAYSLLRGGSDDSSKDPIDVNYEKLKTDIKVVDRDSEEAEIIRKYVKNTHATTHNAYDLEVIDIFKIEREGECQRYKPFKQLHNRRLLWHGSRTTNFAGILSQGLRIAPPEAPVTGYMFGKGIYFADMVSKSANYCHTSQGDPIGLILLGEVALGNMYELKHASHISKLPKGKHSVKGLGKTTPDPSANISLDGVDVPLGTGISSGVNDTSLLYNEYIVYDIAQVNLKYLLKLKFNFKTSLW
T3 sequence (P78527 whole entry): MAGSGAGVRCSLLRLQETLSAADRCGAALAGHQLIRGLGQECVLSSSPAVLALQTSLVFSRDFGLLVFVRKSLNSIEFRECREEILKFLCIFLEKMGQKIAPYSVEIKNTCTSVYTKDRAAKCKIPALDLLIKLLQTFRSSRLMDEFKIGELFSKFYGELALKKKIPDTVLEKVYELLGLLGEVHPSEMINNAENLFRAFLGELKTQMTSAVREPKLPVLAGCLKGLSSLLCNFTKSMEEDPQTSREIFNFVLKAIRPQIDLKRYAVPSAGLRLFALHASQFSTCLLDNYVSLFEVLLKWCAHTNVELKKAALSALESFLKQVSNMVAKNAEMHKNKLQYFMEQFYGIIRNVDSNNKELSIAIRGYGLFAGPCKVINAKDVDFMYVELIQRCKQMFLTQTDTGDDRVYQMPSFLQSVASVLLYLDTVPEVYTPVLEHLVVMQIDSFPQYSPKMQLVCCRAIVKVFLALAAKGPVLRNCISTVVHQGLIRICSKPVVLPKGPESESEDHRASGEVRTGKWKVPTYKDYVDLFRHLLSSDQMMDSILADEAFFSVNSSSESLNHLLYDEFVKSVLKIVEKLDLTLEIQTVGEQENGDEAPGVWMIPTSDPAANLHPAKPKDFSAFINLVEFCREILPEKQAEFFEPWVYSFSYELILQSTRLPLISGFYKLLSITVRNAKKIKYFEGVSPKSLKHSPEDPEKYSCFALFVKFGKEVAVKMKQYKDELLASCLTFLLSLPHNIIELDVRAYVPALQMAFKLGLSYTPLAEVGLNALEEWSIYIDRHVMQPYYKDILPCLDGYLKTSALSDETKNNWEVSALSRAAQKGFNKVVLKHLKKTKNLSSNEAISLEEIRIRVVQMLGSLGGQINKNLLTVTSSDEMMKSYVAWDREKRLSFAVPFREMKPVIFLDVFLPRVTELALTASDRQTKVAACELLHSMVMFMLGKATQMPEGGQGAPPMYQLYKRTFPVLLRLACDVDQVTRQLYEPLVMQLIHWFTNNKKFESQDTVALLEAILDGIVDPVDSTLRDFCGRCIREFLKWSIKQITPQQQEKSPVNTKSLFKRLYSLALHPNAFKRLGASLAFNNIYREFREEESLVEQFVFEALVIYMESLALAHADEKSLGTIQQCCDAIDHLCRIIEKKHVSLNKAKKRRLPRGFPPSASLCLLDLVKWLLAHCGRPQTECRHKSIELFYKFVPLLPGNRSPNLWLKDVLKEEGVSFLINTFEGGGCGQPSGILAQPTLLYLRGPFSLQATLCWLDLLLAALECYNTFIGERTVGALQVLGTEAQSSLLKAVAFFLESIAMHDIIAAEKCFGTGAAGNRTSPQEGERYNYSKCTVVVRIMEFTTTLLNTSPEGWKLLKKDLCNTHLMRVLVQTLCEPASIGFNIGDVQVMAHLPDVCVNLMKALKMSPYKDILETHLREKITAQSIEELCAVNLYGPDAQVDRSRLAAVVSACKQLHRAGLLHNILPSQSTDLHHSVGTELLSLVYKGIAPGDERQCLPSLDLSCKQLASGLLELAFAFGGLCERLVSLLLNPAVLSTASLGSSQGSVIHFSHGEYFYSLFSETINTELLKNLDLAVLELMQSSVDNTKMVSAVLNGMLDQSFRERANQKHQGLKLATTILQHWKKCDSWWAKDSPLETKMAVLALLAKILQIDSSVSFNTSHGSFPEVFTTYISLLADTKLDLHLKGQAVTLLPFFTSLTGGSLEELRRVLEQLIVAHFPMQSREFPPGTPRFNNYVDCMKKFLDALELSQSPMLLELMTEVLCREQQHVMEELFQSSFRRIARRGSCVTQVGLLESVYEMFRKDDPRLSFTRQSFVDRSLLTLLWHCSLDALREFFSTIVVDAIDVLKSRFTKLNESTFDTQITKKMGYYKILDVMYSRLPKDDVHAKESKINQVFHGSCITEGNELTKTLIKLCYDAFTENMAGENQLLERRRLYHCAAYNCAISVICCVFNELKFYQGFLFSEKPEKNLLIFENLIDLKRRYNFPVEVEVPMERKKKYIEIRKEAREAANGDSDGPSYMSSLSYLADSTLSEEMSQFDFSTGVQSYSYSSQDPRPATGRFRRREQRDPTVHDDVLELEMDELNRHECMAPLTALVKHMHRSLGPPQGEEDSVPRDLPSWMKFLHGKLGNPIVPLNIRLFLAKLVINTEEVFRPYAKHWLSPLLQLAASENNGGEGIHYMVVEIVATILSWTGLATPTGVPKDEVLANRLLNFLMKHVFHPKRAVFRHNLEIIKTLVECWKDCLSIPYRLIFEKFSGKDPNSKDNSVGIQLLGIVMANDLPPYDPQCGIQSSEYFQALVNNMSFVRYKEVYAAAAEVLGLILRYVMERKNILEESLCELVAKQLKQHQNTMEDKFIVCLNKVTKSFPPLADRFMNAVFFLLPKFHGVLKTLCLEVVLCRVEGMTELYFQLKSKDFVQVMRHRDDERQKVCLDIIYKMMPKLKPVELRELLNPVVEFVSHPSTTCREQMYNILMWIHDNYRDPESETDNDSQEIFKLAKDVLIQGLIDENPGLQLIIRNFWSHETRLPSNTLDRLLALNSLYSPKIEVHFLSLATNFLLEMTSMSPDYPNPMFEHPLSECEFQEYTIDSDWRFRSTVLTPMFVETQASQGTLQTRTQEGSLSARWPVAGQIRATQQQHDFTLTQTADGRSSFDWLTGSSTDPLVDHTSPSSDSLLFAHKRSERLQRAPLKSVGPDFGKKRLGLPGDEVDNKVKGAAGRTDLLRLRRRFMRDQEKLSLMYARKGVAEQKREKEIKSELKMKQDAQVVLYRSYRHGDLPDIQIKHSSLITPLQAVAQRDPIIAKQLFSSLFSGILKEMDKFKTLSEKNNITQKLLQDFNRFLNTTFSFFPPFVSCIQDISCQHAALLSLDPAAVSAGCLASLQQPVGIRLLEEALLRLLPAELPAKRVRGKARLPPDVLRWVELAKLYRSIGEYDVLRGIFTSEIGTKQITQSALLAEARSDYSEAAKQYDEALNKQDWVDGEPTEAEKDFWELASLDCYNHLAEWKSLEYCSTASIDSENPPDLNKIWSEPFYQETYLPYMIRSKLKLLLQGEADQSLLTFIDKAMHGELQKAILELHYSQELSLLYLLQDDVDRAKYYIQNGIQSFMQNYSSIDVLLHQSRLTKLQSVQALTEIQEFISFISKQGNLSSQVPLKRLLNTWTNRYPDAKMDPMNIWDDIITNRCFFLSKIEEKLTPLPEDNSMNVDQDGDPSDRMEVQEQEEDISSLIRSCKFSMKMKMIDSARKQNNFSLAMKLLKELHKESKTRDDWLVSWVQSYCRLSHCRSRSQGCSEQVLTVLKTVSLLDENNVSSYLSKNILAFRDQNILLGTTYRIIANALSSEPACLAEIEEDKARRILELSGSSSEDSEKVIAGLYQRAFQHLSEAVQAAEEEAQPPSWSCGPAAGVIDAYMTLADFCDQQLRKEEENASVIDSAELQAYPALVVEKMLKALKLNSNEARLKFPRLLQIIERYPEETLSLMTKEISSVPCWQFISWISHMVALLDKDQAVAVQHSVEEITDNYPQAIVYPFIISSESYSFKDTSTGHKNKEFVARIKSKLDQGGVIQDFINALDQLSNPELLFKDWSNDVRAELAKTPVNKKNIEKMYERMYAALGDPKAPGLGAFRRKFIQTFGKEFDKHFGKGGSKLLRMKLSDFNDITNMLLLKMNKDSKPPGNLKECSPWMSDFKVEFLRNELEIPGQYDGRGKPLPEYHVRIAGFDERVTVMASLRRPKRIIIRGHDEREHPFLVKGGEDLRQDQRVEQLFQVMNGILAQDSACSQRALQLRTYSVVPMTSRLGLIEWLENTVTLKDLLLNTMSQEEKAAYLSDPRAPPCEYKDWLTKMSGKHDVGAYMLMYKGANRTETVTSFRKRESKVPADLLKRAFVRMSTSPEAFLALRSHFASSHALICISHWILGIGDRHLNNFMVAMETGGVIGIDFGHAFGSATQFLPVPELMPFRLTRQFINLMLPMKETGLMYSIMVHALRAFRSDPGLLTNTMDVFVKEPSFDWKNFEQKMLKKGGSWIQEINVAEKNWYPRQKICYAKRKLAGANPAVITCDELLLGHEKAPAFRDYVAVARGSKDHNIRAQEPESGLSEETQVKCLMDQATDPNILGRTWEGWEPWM

Question: With `C[C@@H]1COCCN1c1nc(C(C)(C)C#N)c2[nH]nc(-c3ccn[nH]3)c2n1` as the compound, how does the pIC50 (ATR/ATRIP [1]) read?
Answer: 8.52

Question: And the pIC50 (LoVo)?
Answer: 7.26

Question: Which bioavailability [2] does the source give for `Cc1cc2ncnn2cc1Nc1ncc2c(n1)C1(CCC(C)(C)CC1)C(=O)N2C` here?
Answer: 114%

Question: What does the source list for `C[C@@H]1COCCN1c1cc(-c2ccnn2C)c2ncc(-c3ccn[nH]3)n2n1`?
Answer: pIC50 (ATR/ATRIP [3]): 6.03; pIC50 (DU-145): 5.91; pIC50 (NCI-H460): 6.04

Question: With `C[C@@H]1COCCN1c1cc(-c2ccnn2C)nc(-n2c(NCCO)nc3ccc(F)cc32)n1` as the compound, how does the pIC50 (ATR/ATRIP [4]) read?
Answer: > 6.30

Question: What about the pIC50 (HCT-116 [5]) of the same compound?
Answer: > 5.00

Question: And the pIC50 (NCI-H23)?
Answer: > 5.00

Question: With `NC(=O)c1cccc2cn(-c3ccc([C@]4(F)CCCNC4)cc3)nc12` as the compound, how does the pIC50 [6] read?
Answer: > 7.00

Question: With `C=CCn1c(=O)c2cnc(Nc3ccc(N4CCN(C)CC4)cc3)nc2n1-c1cccc(C(C)(C)O)n1` [ADAVOSERTIB] as the compound, how does the pIC50 (NCI-H1299) read?
Answer: 6.55

Question: Which Cmax [7] does the source give for `Cc1cc2ncnn2cc1Nc1ncc2c(n1)C1(CCC3(CC3)CC1)C(=O)N2C` here?
Answer: 2170 nM

Question: And the bioavailability [2]?
Answer: 83%

Question: With `Cc1ncc(-c2cc(NC[C@H](C)c3cccc4c(C5=NCCN5)ccnc34)ncn2)cn1` as the compound, how does the pIC50 [8] read?
Answer: 6.91

Question: With `CC(C)(C)CC(=O)C(=O)N1CCN(C(=O)c2cc(Cc3n[nH]c(=O)c4c3CCCC4)ccc2F)CC1` as the compound, how does the pIC50 [9] read?
Answer: > 6.70

Question: With `C[C@@H]1COC[C@H]2COc3c(nc(-c4ccnc5[nH]ccc45)nc3C3(C#N)CC3)N21` as the compound, how does the pIC50 (ATR/ATRIP [1]) read?
Answer: 8.00

Question: And the pIC50 (LoVo)?
Answer: 6.34

Question: With `Cc1ccc(-c2cc(N3CCOC[C@H]3C)nn3c(-c4ccn[nH]4)cnc23)cn1` as the compound, how does the pIC50 (ATR/ATRIP [3]) read?
Answer: 6.42

Question: What about the pIC50 (DU-145) of the same compound?
Answer: 6.04

Question: And the pIC50 (NCI-H460)?
Answer: 6.49

Question: What does the source list for `NC(=O)c1cccc2cc(C(=O)N3CCN(c4nc(-c5cnc(N)nc5)nc(N5CCOCC5)n4)CC3)oc12`?
Answer: pIC50 [10]: 8.20; pIC50 [11]: 8.24; pIC50 (HCT-116 [12]): 7.03; pIC50 (HCC1937): 7.21; pIC50 (MDA-MB-231): 5.39

Question: With `O=c1[nH]c(N[C@H]2CC[C@@H](Oc3cc(N4CCOCC4)cc4nccnc34)CC2)ncc1F` as the compound, how does the pKi [13] read?
Answer: > 7.00

Question: What does the source list for `CNc1nc2ccc(F)cc2n1-c1nc(-c2ccnn2C)cc(N2CCOC[C@H]2C)n1`?
Answer: pIC50 (ATR/ATRIP [4]): > 6.30; pIC50 (HCT-116 [5]): > 5.00; pIC50 (NCI-H23): > 5.00

Question: With `CC(C)n1c(=O)n(C)c2cnc3ccc(-c4ccc(OCCCN5CCCC5)nc4)cc3c21` as the compound, how does the pIC50 [14] read?
Answer: < 4.52

Question: And the pIC50 [15]?
Answer: 8.80

Question: What about the Ratio IC50 (Homo sapiens [16]) of the same compound?
Answer: > 1000

Question: What about the Ratio IC50 (Homo sapiens [17]) of the same compound?
Answer: > 1000

Question: And the Ratio IC50 (Homo sapiens [18])?
Answer: > 1000

Question: What about the pIC50 [19] of the same compound?
Answer: < 5.00

Question: What about the pIC50 [20] of the same compound?
Answer: < 5.00

Question: With `Cc1cc2ncnn2cc1Nc1ncc2c(n1)n(N1CCOCC1)c(=O)n2C` as the compound, how does the bioavailability [2] read?
Answer: 96.4%

Question: With `C=CCn1c(=O)c2cnc(Nc3ccc4c(c3)OC[C@@H]3C[C@@H](N(C)C)CN43)nc2n1-c1ccc(C(C)(C)O)cn1` as the compound, how does the pIC50 (Wee1-like protein kinase) read?
Answer: 8.32

Question: With `CCc1ncc(S(=O)(=O)Nc2cc(-c3ccc4ncc5c(c4c3)C3(CCC3)C(=O)N5C)cnc2OCCCN(C)C)s1` as the compound, how does the pIC50 [21] read?
Answer: 9.00

Question: What about the pIC50 [22] of the same compound?
Answer: 9.00

Question: Which results are given for `Nc1cc(C(F)(F)F)c(-c2nc3c(c(N4CCOCC4)n2)CCN(C(=O)c2cc(Cc4n[nH]c(=O)c5ccccc45)ccc2F)C3)cn1`?
Answer: pIC50 (HCT-116 [12]): 6.11; pIC50 (HCC1937): 6.30; pIC50 (MDA-MB-231): 6.81

Question: With `NC(=O)c1cccc2cn(-c3ccc([C@@]4(F)CCCNC4)cc3)nc12` as the compound, how does the pIC50 [6] read?
Answer: > 7.00
